4 compounds from patent USRE48898E1, “Prodrugs of 2,4-pyrimidinediamine compounds and their uses” (Rigel Pharmaceuticals, Inc., priority 2006, dated 2022) can be followed below.

Usually EC50 stands for the concentration needed to bring the measured effect to its halfway point. As a reminder, the solubility is the concentration that dissolves in the medium under given conditions. In general, inhibition refers to the relative decrease from the control value, in per cent.

Entries after “also recorded” stand apart in the source; their conditions may differ. Counter-ions that a name gives are not always drawn. Like-named read-outs stand apart in the source and are kept apart here.

For data set [1], the system named is FcϵRI-dependent production and release of cytokines. The experiment in a line: FcϵRI-dependent production and release of cytokines. The format is cell-based. The note with it: read-out: EC50, all cytokines tested.
A further data set can be described thus: Water solubility. In kind it is physicochemical.
Data set [2] concerns collagen-induced arthritis. The experiment in a line: Collagen-induced arthritis (CIA). In kind it is in vivo, Syngeneic LOU rats. An excerpt: One of the experimental models for IC-mediated tissue injury is the CIA in rodents (Kleinau et al., 2000, J. Exp. Med. 191:1611-1616). Injection of type II collagen (CII) into rodents produces an immune reaction that characteristically involves inflammatory destruction of cartilage and bone of the distal joints with concomitant swelling of surrounding tissues. CIA in rats is commonly used to evaluate compounds that might be of potential use as drugs for treatment of rheumatoid arthritis and other chronic inflammatory conditions and is induced in susceptible strains of either mice or rats by injection of CII in incomplete Freund's adjuvant (IFA). Administration of this emulsion gives rise to polyarthritis, characterized by synovial hyperplasia, infiltration of mononuclear cells, pannus formation, and destruction of cartilage and bone. […] Syngeneic LOU rats were immunized on Day 0 with native chicken CII/IFA. Oral treatment began at the onset of arthritis symptoms (Day 10). […] Hind limbs were scored daily for clinical arthritis severity using a standardized method based on the degree of joint inflammation. High resolution digital radiographs of hind limbs were obtained at the conclusion of the study (Day 28). These limbs were also analyzed for histopathologic changes. IgG antibodies to native CII were measured in quadruplicate by ELISA. […] Brahn. 2004). Blinded composite histopathologic studies confirmed the regression of pannus and erosions: […] Antibodies to native CII were not decreased in Compound 1-treated rats.

A further data set relates to CHMCs. Put plainly: Ionomycin-induced degranulation of CHMCs. The format is cell-based, Human.
The nature of data set [3]: GLP mutagenicity and clastogenicity studies (Ames, chromosomal aberration, mouse micronucleus). On the procedure: (§1) GLP toxicology studies included negative mutagenicity and clastogenicity studies (Ames, chromosomal aberration, and mouse micronucleus). […] The No Observed Adverse Effect Level (NOAEL) is 10-30 mg/kg/day for rats and 100 mg/kg/day for monkeys.
For data set [4] the following is noted: in vivo. On the procedure: as §1
Data set [5] concerns collagen antibody-induced arthritis (CAIA). The experiment in a line: Collagen antibody-induced arthritis (CAIA) model. In kind it is in vivo, Balb/c mice. An excerpt:
This passive model differs from the traditional rodent collagen-induced arthritis (CIA) in that disease symptoms appear quickly (developing within 24-48 hrs after an IV-injection of antibodies), arthritis is inducible in both CIA-susceptible and CIA-resistant mouse strains, and it allows evaluation of inflammation that is independent of antibody production. CAIA was induced in Balb/c mice by intravenous injection of Arthrogen-CIA® Monoclonal Antibody Blend (Chemicon International, Inc., Temecula, Calif.) via the tail vein, followed 2 days later by an intraperitoneal injection of LPS. […] The severity of the arthritis in hind-paws was scored daily (scale of 0-4 per paw, sum of scores for both hind paws).

The subject of data set [6] is Cord-Blood Derived Primary Human Mast Cells (CHMC). The experiment in a line: FcϵRI-dependent activation of CHMC, activity of tryptase released upon degranulation. The note with it: Mast cell. In kind it is cell-based.
The subject of data set [7] is FcϵRI-dependent production and release of LTC4. The experiment in a line: FcϵRI-dependent production and release of LTC4. The format is cell-based.
The test system of data set [8] is Reverse Passive Arthus (RPA) reaction. Put plainly: Reverse Passive Arthus (RPA) reaction. The format is in vivo, rat. From the text: IC-mediated acute inflammatory tissue injury is implicated in a variety of human autoimmune diseases, including vasculitis, serum sickness, systemic lupus erythematosus, RA, and glomerulonephritis. The classical experimental model for IC-mediated tissue injury is the Reverse Passive Arthus (RPA) reaction. Intravenous injection of antigen (ovalbumin, OVA) following intradermal injection of antibodies specific to OVA (rabbit anti-OVA IgG) results in perivascular deposition of IC and a rapid inflammatory response characterized by edema, neutrophil infiltration, and hemorrhage at the injection sites (Szalai, et al., 2000, J. Immunol. 164(1):463-468).

Another data set is described as follows: Stability in rat plasma. The format is in vitro ADME. From the text:
The presence of Phosphatase activity in rat plasma was confirmed using p-nitrophenyl phosphate—a known substrate for phosphatase.

A short description of data set [9]: Pharmacokinetics, IV and oral dosing. The format is in vivo, Sprague-Dawley rats. How it is done:
Prodrug Compound 4 was tested for oral bioavailability. For the study, the prodrug was dissolved in various vehicles (e.g. PEG 400 solution and CMC suspension) for intravenous and oral dosing in the rats. […] Following administration of the prodrug and/or drug, plasma samples were obtained and extracted. The plasma concentrations of the prodrug and/or drug were determined by high performance liquid chromatography/tandem mass spectrometry (LC/MS/MS) methods. Pharmacokinetic analyses were performed based on the plasma concentration data. The pharmacokinetic parameters of interest include Clearance (CL), Volume of distribution at steady-state (Vss), terminal half-life (t ½), and oral bioavailability (% F).
Referring to FIG. 4, PK profiles are shown for IV and PO administration in Sprague-Dawley rats. For IV administration, Compound 4 was dissolved in PEG-400 and administered at a dose of 1 mg/kg.
FIG. 5 summarizes the PK parameters for the study described in FIG. 4.
FIG. 11 illustrates the absorption of prodrug Compound 4 from different vehicles. […] Prodrug Compound 4 is absorbed equally well in solution formulations (PEG-400 and carboxymethylcellulose (CMC)) and as a powder in hard gelatin capsules.

Data set [10] is described as follows: Conversion of prodrug to drug in microsome preparations. In kind it is in vitro ADME, rat. From the text: Although phosphate-containing prodrugs suitable for oral administration are of interest, skilled artisans will appreciate that prodrugs including phosphate-containing progroups R^p can be administered via other routes of administration, as phosphatases are distributed throughout the body. […] Thus, the only requirement is that the particular phosphate-containing progroup R^p selected should be removable under the conditions of intended use.

Data set [11] can be described thus: Stability under acidic and neutral conditions. As to conditions: acidic and neutral conditions at 37° C. The format is physicochemical.
Data set [12] in a line: Moisture sorption analysis. The format is physicochemical. On the procedure:
The sample for moisture analysis was allowed to dry at 25° C. for up to 4 hours under a stream of dry nitrogen. The relative humidity was then increased stepwise from 10 to 90% relative humidity (adsorption scan) allowing the sample to equilibrate for a maximum of four hours before weighing and moving on to the next step. The desorption scan was measured from 85 to 0% relative humidity with the same equilibration time. The sample was then dried at 80° C. for 2 hours or until no weight loss was observed under a stream of dry nitrogen.

[13] abbreviates: aqueous buffer, aqueous buffer under physiological conditions, read-out: water solubility.
[14] abbreviates: water, water solubility, read-out: Solubility.
The mark [15] stands for this setting: water, in water, read-out: solubility.

For the compound `COc1cc(Nc2ncc(F)c(Nc3ccc4c(n3)NC(=O)C(C)(C)O4)n2)cc(OC)c1OC` [Compound 1, N4-(2,2-dimethyl-3-oxo-4H-5-pyrido[1,4]oxazin-6-yl)-5-fluoro-N2-(3,4,5-trimethoxyphenyl)-2,4-pyrimidinediamine], the EC50 is 158 to 462 nM in data set [1], approximately 43 nM in data set [6] and 39 nM in data set [7]. Also, the solubility is less than 1 µg/mL in the data set “Water solubility” (setting [13]); less than 1 µg/mL in “Water solubility” (phosphate buffer, pH 7.5, aqueous buffer, phosphate buffer at pH=7.5, read-out: measured solubility); less than 1 µg/mL in “Water solubility” (setting [14]). Moreover, the arthritis severity entry in data set [2] (30 mg/kg q.d. p.o., evident within 7 days after initiation of therapy, p<0.05) is listed as “significant reduction”. The “Mean modified Mankin scores” value in data set [2] (30 mg/kg, vehicle 11.8±0.9, p<0.001) was found to be 3.7±0.9. The compound also showed a clinical score in [2] (Day 28, 30 mg/kg, vehicle 6.08±0.67, p<0.001) of 2.54±0.98. Moreover, the “joint damage, blinded radiographs” value in [2] (Day 28, vehicle 3.66±0.71, p<0.02) is 1.63±0.67. Further, in [2] (ELISA, treated rats), the “Antibodies to native CII” value is reported as “not decreased”. Besides, the “inhibition of ionomycin-induced degranulation” value in the data set with CHMCs is reported as “does not inhibit”. In addition, the mutagenicity and clastogenicity result in data set [3] was “negative”. In addition, the 28-day toxicity findings entry in data set [4] (monkey) is “reversible effect on hematology”; in data set [4] (rat) it was “reversible effect on hematology, liver transaminase (mild effect in the rat only), spleen and thymus size (rat only) and bone marrow cellularity (rat and monkey)”. The “CD45RA+ cells, immunophenotyping” value in [4] (rat) is reported as “significant increase”. For the same compound, the Histopathology result in data set [4] (rat) is listed as “mild reductions in marrow cellularity”. The “humoral immunity, anti-KLH antibody assessment” value in [4] (rat) is “no evidence for untoward effects”. In [4] (rat), the “percentage of CD3+ cells, immunophenotyping” value was “significant decrease”. The “arthritis severity, disease incidence, time of onset” value in data set [5] (lower dose levels, p>0.05) is given as “the differences were not significant”. In [5] (oral, b.i.d., vs vehicle, p<0.05), the clinical arthritis entry was “significantly reduced clinical arthritis”. Further, the inhibition at 10 mg/kg in [8] (Rattus norvegicus, 10 mg/kg oral, rats, compared with vehicle control, read-out: inhibition of extravascular leakage of Evans blue dye (OD610) from tissue biopsies) is 80%. For the same compound, the “cutaneous RPA reaction and inflammatory edema” value in [8] (single oral treatment of rats one hour prior to antigen/antibody) is “reduced the cutaneous RPA reaction and inflammatory edema in a dose-dependent manner”.
For `COc1cc(Nc2ncc(F)c(Nc3ccc4c(n3)N(COP(=O)(O)O)C(=O)C(C)(C)O4)n2)cc(OC)c1OC` [Compound 4, N4-(2,2-dimethyl-4-[(dihydrogenphosphonoxy)methyl]-3-oxo-5-pyrido[1,4]oxazin-6-yl)-5-fluoro-N2-(3,4,5-trimethoxyphenyl)-2,4-pyrimidinediamine], in the data set “Stability in rat plasma”, the “stability in rat plasma / hydrolysis to Compound 1” value is on record as “metabolize to the active drug Compound 1; also recorded: unstable”. In addition, in the data set “Water solubility” (aqueous buffer under physiological conditions), the “solubility of prodrug relative to active drug Compound 1” value is given as “approximately 2000 times”. The solubility in the data set “Water solubility” (setting [13]) and in “Water solubility” (setting [14]) was more than 5000 µg/mL each time. Also, the “plasma profile of prodrug after IV administration” value in [9] (IV 1 mg/kg in PEG-400) was “Rapid disappearance”. Further, the “levels of drug metabolite Compound 1 after oral prodrug” value in [9] (oral, PEG-400) is “high levels”. Also, the “systemic presence of prodrug after oral administration” value in [9] (oral, PEG-400) was “no prodrug Compound 4 was present systemically”. In [9] (oral, Compound 4 4 mg/kg vs Compound 1 2.5 mg/kg in PEG-400), the “AUC/dose (Compound 1 exposure) / absorption, prodrug vs drug Compound 1” value is given as “nearly identical”. In addition, the “dependence of absorption on formulation” value in data set [9] (rats, PEG-400 and CMC solutions, powder in hard gelatin capsules) was “not dependent upon formulation; also recorded: not dependent on formulation”. Also, the clearance of prodrug result in data set [9] (study of FIG. 4/5) is “rapidly cleared”. In addition, the “conversion to drug Compound 1” value is listed as “metabolize to the active drug Compound 1; also recorded: conversion of Compound 4 to Compound 1 was observed” in [10] (intestinal and hepatic microsomes from a different source); “failed to convert” in data set [10] (microsomal preparations obtained from Xenotech). Besides, the stability result in [11] is recorded as “stable”.
With `COc1cc(Nc2ncc(F)c(Nc3ccc4c(n3)N(COP(=O)(O)O)C(=O)C(C)(C)O4)n2)cc(OC)c1OC` [Prodrug Salt 6, N4-(2,2-dimethyl-4-[(dihydrogenphosphonoxy)methyl]-3-oxo-5-pyrido[1,4]oxazin-6-yl)-5-fluoro-N2-(3,4,5-trimethoxyphenyl)-2,4-pyrimidinediamine mono calcium salt], in “Water solubility” (setting [15]), the solubility is 15 µg/mL.
Take `COc1cc(Nc2ncc(F)c(Nc3ccc4c(n3)N(COP(=O)([O-])[O-])C(=O)C(C)(C)O4)n2)cc(OC)c1OC.[Na+].[Na+]` [prodrug salt hydrate 32, N4-(2,2-dimethyl-4-[(dihydrogenphosphonoxy)methyl]-3-oxo-5-pyrido[1,4]oxazin-6-yl)-5-fluoro-N2-(3,4,5-trimethoxyphenyl)-2,4-pyrimidinediamine disodium salt hexahydrate]: the solubility in “Water solubility” (setting [15]) worked out at 10000 µg/mL. Further, the water content result in data set [12] (after humidity is increased) is given as “approximately 14.0%”. In [12] (dry conditions, ambient temperature, about 0% relative humidity), the moisture content entry is on record as “approximately 4.0%”. In data set [12] (hexahydrate form), the “stability of hydration over relative humidity” value is on record as “stable over a wide range of relative humidities”.
